Legend:
Assay type in all cases: in vivo
[1] = Modifications in the electrocorticogram (ECoG) of unanesthetized animals, R index
Protocol: Twenty-four hours prior to the test, the surface of a test animal's skull was exposed and stainless steel electrodes were screwed through the lamina externa to make contact with the dura matter in the frontal, parietal and occipital regions, on both sides of the median and transverse sutures. The ECoG was recorded on a REEGA MINI HUIT (Alvar Electronic) encephalograph with a transverse circuit, with bi-frontal, bi-parietal and bi-occipital leads and a longitudinal circuit, with fronto-pariental and parieto-occipital leads on both left and right. One track was used to record respiration, with leads from two steel needles placed under the shin, on either side of the thorax.
Some test animals were kept in restraint cases placed in a relatively soundproof room and some were left free to move in metal cases measuring 40×50×30 cm, which were also kept in a relatively quiet environment.
The activity of the test compounds studied was judged on the one hand by the pattern of spontaneous electrogenesis, especially by the relative degree to which the three basic rhythms of the ECoG in the animals were represented; the theta rhythm (4-8 c/sec.), predominant and characteristic of the state of wakefulness in the posterior regions; bursts of rapid spiked waves (alpha rhythm, 9-15 c/sec.) recorded in the course of diffused wakefulness, and slow waves (delta rhythm, 0.5-3 c/sec.) which are absent in a state of wakefulness except in pathological conditions or in the presence of medicinal substances, a rhythm characteristic of slow-wave sleep. The rapid, low-voltage beta rhythm, not very characteristic of the ECoG in the test animals used and primarily superimposed on the other rhythms, was not analyzed.
Possible modifications in cortical reactivity were also investigated, using two types of stimulation, one comprised an auditory stimulus (whistle blasts) and the other a nociceptive stimulus delivered to the cutaneous nerve endings by pinching the dorsal skin with Kocher's clamps.
To the foregoing qualitative analysis, a quantitative analysis concerning the evolution of spontaneous electrogenesis under the influence of test compounds 1 and 4 was added. The activity of the two compounds was judged by variations in an "R" index, defined as the ratio between the theta waking rhythm, slow waves and bursts of rapid spiked waves. Initially, R was evaluated quantitatively on a scale from 0 to 4 and after this initial estimate, variations in the R index were rated on a scale from 0 to 5 as follows:
1. Maintenance of the value calculated in making the reference tracking (basal value) 0 since variation is nil.
2. Reduction in basal values
(a) reduction of basal value by one-half -1.
(b) observed value between 1/2 and 1/5 of basal value -2.
(c) observed value between 1/5 and 1/10 of basal value -3.
(d) observed value between 1/10 and 1/20 of basal value -4.
(e) observed value lower than 1/20 of basal value, reflecting maximum perturbation of spontaneous ECoG and expressing either a pathological condition or a state of slow-wave sleep, with the absence of theta rhythms and the exclusive presence of slow waves and/or bursts of rapid spiked waves -5.
Once the various values were allocated to each animal, the mean of these values were calculated for each experimental period. From these means, calculations were made of the percentages of variation as compared to a theoretical maximum value of -5 for each experimental period. The percentage for each period was calculated every 30 minutes for 7 hours, with a theoretical total of -10 per hour, then between 7 and 48 hours (theoretical total […]) and between the time of administering the test compound and the 48th hour (theoreticaltotal -90). Variations of 10% were not regarded as significant. All dosages were administered intragastrically through the esophageal tube. […]

[2] = Convulsions induced by pentamethylenetetrazol in rats
Protocol: The method utilized was according to the method published by Everett and Richards (1944) and Banziger (1965). The pentamethylenetetrazol was given subcutaneously (125 mg/kg) and the test compounds were given orally suspended in a 1% carboxymethyl cellulose solution.

[3] = Conditioned emotional response (CER), tone paired with foot shock
Protocol: Conditioned emotional response (CER) in test animals was conventionally determined by a tone paired with a foot shock which was presented to hungry animals trained to press a lever for intermittent food reinforcement. After a few such pairings, the presence of the tone alone was sufficient to disrupt the lever pressing behavior. CER is considered a model of behavior anxiety in animals. […] Thus, a 1.25 mg/kg os of compounds 1 and 4 respectively produced about a 350 and 630% increase in CER while a 5 mg/kg os of compounds 1 and 4 respectively produced about 920 and 1600% increase.

[4] = Aggressive behavior elicited by foot shock; settings: oral
Description: The aggressive behavior of test animals was elicited by a conventional foot shock procedure after administration of Compounds 1 and 4.

[5] = 7.5 mg/kg intragastric, 2 Hours
[6] = 7.5 mg/kg intragastric, 3 Hours
[7] = 7.5 mg/kg intragastric, 4 Hours
[8] = 7.5 mg/kg intragastric, 5 Hours
[9] = 7.5 mg/kg intragastric, 6 Hours
[10] = 7.5 mg/kg intragastric, 7 Hours
[11] = 7.5 mg/kg intragastric, 48 Hours (7-48 h)
[12] = 7.5 mg/kg intragastric, After 48 Hours (0-48 h total)
[13] = 15.0 mg/kg intragastric, 1 Hour
[14] = 15.0 mg/kg intragastric, 2 Hours
[15] = 15.0 mg/kg intragastric, 3 Hours
[16] = 15.0 mg/kg intragastric, 4 Hours
[17] = 15.0 mg/kg intragastric, 5 Hours
[18] = 15.0 mg/kg intragastric, 6 Hours
[19] = 15.0 mg/kg intragastric, 7 Hours
[20] = 15.0 mg/kg intragastric, 48 Hours (7-48 h)
[21] = 15.0 mg/kg intragastric, After 48 Hours (0-48 h total)
[22] = 30.0 mg/kg intragastric, 1 Hour
[23] = 30.0 mg/kg intragastric, 2 Hours
[24] = 30.0 mg/kg intragastric, 3 Hours
[25] = 30.0 mg/kg intragastric, 4 Hours
[26] = 30.0 mg/kg intragastric, 5 Hours
[27] = 30.0 mg/kg intragastric, 6 Hours
[28] = 30.0 mg/kg intragastric, 7 Hours
[29] = 30.0 mg/kg intragastric, 48 Hours (7-48 h)
[30] = 30.0 mg/kg intragastric, After 48 Hours (0-48 h total)

With `C#CCN1C(=O)CN=C(c2ccccc2Cl)c2cc(Cl)ccc21` [Compound 4, 7-chloro-2,3-dihydro-5-(2-chlorophenyl)-1-propargyl-1,H-1,4-benzodiazepine-2-one] the “duration of effect on spontaneous electrogenesis” value ([1]; 1.5 mg/kg) was 2 h, the “latency of the effects” value ([1]; 1.5 mg/kg) was 25 min and the “average duration of effect on spontaneous electrogenesis” value ([1]; 3.75 mg/kg) was 4 h. The “R index variation, Mean” value ([1]; 7.5 mg/kg intragastric, 1 Hour) was -9.5, the “R index, % of Variation” value ([1]; 7.5 mg/kg intragastric, 1 Hour) was -63.3% and the “R index variation, Mean” value [1, 5] was -7.5. For the same compound, the “R index, % of Variation” value [1, 5] was -75.0%, the “R index variation, Mean” value [1, 6] was -6.0 and the “R index, % of Variation” value [1, 6] was -60.0%. The “R index variation, Mean” value [1, 7] was -3.0, the “R index, % of Variation” value [1, 7] was -30.0% and the “R index variation, Mean” value [1, 8] was -4.5. For the same compound, the “R index, % of Variation” value [1, 8] was -45.0%, the “R index variation, Mean” value [1, 9] was -1.5 and the “R index, % of Variation” value [1, 9] was -15.0%. For the same compound, the “R index variation, Mean” value [1, 10] was -1.00, the “R index, % of Variation” value [1, 10] was -10.0% and the “R index variation, Mean” value [1, 11] was 0. The “R index, % of Variation” value [1, 11] was 0%, the “R index variation, Mean” value [1, 12] was -33.0 and the “R index, % of Variation” value [1, 12] was -36.7%. For the same compound, the “R index variation, Mean” value [1, 13] was -13.0, the “R index, % of Variation” value [1, 13] was -86.7% and the “R index variation, Mean” value [1, 14] was -8.5. The “R index, % of Variation” value [1, 14] was -85.0%, the “R index variation, Mean” value [1, 15] was -7.0 and the “R index, % of Variation” value [1, 15] was -70.0%. For the same compound, the “R index variation, Mean” value [1, 16] was -5.5, the “R index, % of Variation” value [1, 16] was -55.0% and the “R index variation, Mean” value [1, 17] was -5.0. For the same compound, the “R index, % of Variation” value [1, 17] was -50.0%, the “R index variation, Mean” value [1, 18] was -1.5 and the “R index, % of Variation” value [1, 18] was -15.0%. The “R index variation, Mean” value [1, 19] was -1.50, the “R index, % of Variation” value [1, 19] was -15.0% and the “R index variation, Mean” value [1, 20] was “+1.50”. For the same compound, the “R index, % of Variation” value [1, 20] was “+10.0%”, the “R index variation, Mean” value [1, 21] was -40.5 and the “R index, % of Variation” value [1, 21] was -45.0%. For the same compound, the “Cortical reactivity induced by exteroceptive stimulation” value ([1]; 30 mg/kg) was “remained unchanged”, the “R index variation, Mean” value [1, 22] was -6.99 and the “R index, % of Variation” value [1, 22] was -46.7%. For the same compound, the “R index variation, Mean” value [1, 23] was -5.32, the “R index, % of Variation” value [1, 23] was -53.2% and the “R index variation, Mean” value [1, 24] was -6.32. The “R index, % of Variation” value [1, 24] was -63.2%, the “R index variation, Mean” value [1, 25] was -4.99 and the “R index, % of Variation” value [1, 25] was -49.9%. For the same compound, the “R index variation, Mean” value [1, 26] was -2.99, the “R index, % of Variation” value [1, 26] was -29.9% and the “R index variation, Mean” value [1, 27] was -2.33. For the same compound, the “R index, % of Variation” value [1, 27] was -23.3%, the “R index variation, Mean” value [1, 28] was -0.66 and the “R index, % of Variation” value [1, 28] was -6.6%. The “R index variation, Mean” value [1, 29] was -1.98, the “R index, % of Variation” value [1, 29] was -13.2% and the “R index variation, Mean” value [1, 30] was -31.58. The “R index, % of Variation” value [1, 30] was -35.1%, the “duration of effects on spontaneous electrogenesis” value ([1]; 7.5, 15 and 30 mg/kg) was “at least 5 hours” and the “% Protected Animals” value ([2]; 6 mg/kg/os, pentamethylenetetrazol 125 mg/kg s.c.) was 20%. For the same compound, the “% Protected Animals” value ([2]; 8.5 mg/kg/os, pentamethylenetetrazol 125 mg/kg s.c.) was 60%, the “% Protected Animals” value ([2]; 12 mg/kg/os, pentamethylenetetrazol 125 mg/kg s.c.) was 70% and the ED50 ([2]; Rattus norvegicus, oral, protection against pentamethylenetetrazol, read-out: ED50 (and C.L.) (converted)) was 8.5 mg/kg. The “% Protected Animals” value ([2]; Time 90 min.) was 37%, the “% Protected Animals” value ([2]; Time 120 min.) was 18% and the “% Protected Animals” value ([2]; Time 180 min.) was 0%. The “% Protected Animals” value ([2]; Time 240 min.) was 0%, the “increase in CER” value ([3]; 1.25 mg/kg os) was about 630% and the “increase in CER” value ([3]; 5 mg/kg os) was about 1600%. For the same compound, the ED50 [4] was 2.7 mg/kg.

From US4313943A, “7-Chloro-2,3-dihydro-5-phenyl-1-propargyl-1H-1,4-benzodiazepine-2-one, and a pharmaceutical composition thereof” (priority 1972, dated 1982)
